Legend:
Type in all cases: cell-based, human
[1] = system: lung cancer cell lines with molecular profile EGFR−/ALK−/ROS1− (A549, H358, H441, H460, H520); assay: MTT proliferation, NSCLC cell lines with EGFR−/ALK−/ROS1− profile; details: for Mean proliferation: 48 hours
Excerpt: (§1) EGFR, ALK and ROS1 are key molecular factors that may be used to determine pathological classification, prognosis, therapeutics and behaviour in patients with lung cancer. EGFR, ALK and ROS1 are biomarkers routinely analysed in the clinical practice of the management of patients with NSCLC. NSCLC with molecular profile EGFR-/ALK-/ROS1- presents a better response to treatment with the NK1 inhibitor aprepitant, compared to lung cancer with different profiles (in particular, EGFR+/ALK-/ROS1- and EGFR-/ALK+/ROS1-, in which EGFR and ALK respectively contain mutations relative to their wild type gene). Commercial lines of lung cancer were used as shown in Table 2 together with their molecular profile. The molecular profile of the cancer cell lines was determined by sequencing and can be consulted in the Cancer Cell Line Encyclopaedia database of public access available at the url: https://portals.broadinstitute.org/ccle All cells were cultured in wells under vendor-recommended conditions and exposed to different concentrations of aprepitant for 48 hours. In each case a group of wells of cells were used to which no treatment was applied and which were considered as controls. At 48 hours the number of cells was measured. Eight cell lines of human were used for the study of NK1 inhibitors (Table 3). All of them were maintained in culture in their respective culture media (Gibco,Thermo Fisher Scientific) supplemented with 10% foetal bovine serum (FBS) (Gibco, Thermo Fisher Scientific), 2 mM L-Glutamine (Gln) (Sigma-Aldrich, Merk), and […] and […] Gibco, Thermo Fisher Scientific) in a humidified incubator at 37° C. and 5% CO2. Cell culture media used are Dulbecco's Modified Eagle Medium (DMEM), and RPMI Medium 1640 (RPMI-1640). To measure cell viability, the cytotoxicity of drugs in culture was evaluated using the 3-(4,5-Dimethyl-2-thiazolyl)-2,5-diphenyl-2H-tetrazolium bromide (MTT) reduction assay. This assay assesses cell viability through the indirect measurement of the activity of reductases that convert yellow soluble MTT into purple insoluble formazan salts. As MTT can only be reduced when these enzymes are active, the reaction is used as an indicator of the cell metabolic competence and, therefore, of viability. A variable number of cells (depending on the cell line) were seeded in 96 multi-well plates and grown during 24 hours. The following day, the culture medium was aspirated and fresh culture medium with the drug dissolved was added to the wells. After 24 hours or 48 hours cell viability was measurement by adding 10 μl of a 5 mg/ml MTT solution (M5655; Sigma-Aldrich) and 100 μl of HCl 0.01M-SDS 10% solution 4 hours later. After 24 hours, the absorbance was measured at 595 nm, using a multi-well plate reader (iMark, Bio-rad). Each condition was tested 5 times, obtaining 5 values of absorbance. All sample measurements were corrected using the blank (culture medium without cells) mean absorbance value, and normalized to positive control to determinate relative cell viability for each condition at 24 and 48 hours.

H460 = assay: MTT proliferation, H460; details: 48 hours
Excerpt: as §1

[2] = system: breast cancer cell lines ER−/PR−/HER2− (MDAMB231, MDAMB435, MDAMB468); assay: MTT proliferation, breast cancer cell lines ER−/PR−/HER2−; details: for Mean proliferation: 48 hours
Protocol: (§2) All cells were cultured in wells under vendor-recommended conditions and exposed to different concentrations of aprepitant for 48 hours. In each case a group of wells of cells were used to which no treatment was applied and which were considered as controls. At 48 hours the number of cells was measured. To measure cell viability, the cytotoxicity of drugs in culture was evaluated using the 3-(4,5-Dimethyl-2-thiazolyl)-2,5-diphenyl-2H-tetrazolium bromide (MTT) reduction assay. This assay assesses cell viability through the indirect measurement of the activity of reductases that convert yellow soluble MTT into purple insoluble formazan salts. As MTT can only be reduced when these enzymes are active, the reaction is used as an indicator of the cell metabolic competence and, therefore, of viability. A variable number of cells (depending on the cell line) were seeded in 96 multi-well plates and grown during 24 hours. The following day, the culture medium was aspirated and fresh culture medium with the drug dissolved was added to the wells. After 24 hours or 48 hours cell viability was measurement by adding 10 μl of a 5 mg/ml MTT solution (M5655; Sigma-Aldrich) and 100 μl of HCl 0.01M-SDS 10% solution 4 hours later. After 24 hours, the absorbance was measured at 595 nm, using a multi-well plate reader (iMark, Bio-rad). Each condition was tested 5 times, obtaining 5 values of absorbance. All sample measurements were corrected using the blank (culture medium without cells) mean absorbance value, and normalized to positive control to determinate relative cell viability for each condition at 24 and 48 hours.

[3] = system: breast cancer cell line ER−/PR−/HER2+ (SkBr3); assay: MTT proliferation, breast cancer cell line ER−/PR−/HER2+; details: 48 hours
Protocol: as §2

For `C[C@@H](O[C@H]1OCCN(Cc2nc(=O)[nH][nH]2)[C@H]1c1ccc(F)cc1)c1cc(C(F)(F)F)cc(C(F)(F)F)c1` [Aprepitant], the inhibition at 5 µM ([1]; Homo sapiens, concentration of 5 μM, in most cell lines (FIG. 3)) was about 20%, the inhibition at 20 µM ([1]; Homo sapiens, concentration of 20 μM (FIG. 3), read-out: growth inhibition) was 60% and the Mean proliferation ([1]; aprepitant 1 μM) was 98.09. The Mean proliferation ([1]; aprepitant 3 μM) was 94.71, the Mean proliferation ([1]; aprepitant 5 μM) was 72.82 and the Mean proliferation ([1]; aprepitant 10 μM) was 59.95. The Mean proliferation ([1]; aprepitant 20 μM) was 42.37, the Mean proliferation ([1]; aprepitant 30 μM) was 30.66 and the Mean proliferation ([1]; aprepitant 40 μM) was 18.72. For the same molecule, the Mean proliferation ([1]; aprepitant 50 μM) was 4.05, the Mean proliferation ([1]; aprepitant 60 μM) was 4.40 and the “proliferation compared to control” value ([1]; concentration of 5 μM, in most cell lines (FIG. 3)) was 80%. The “response to treatment versus EGFR+/ALK−/ROS1− and EGFR−/ALK+/ROS1− profiles” value ([1]; in vitro, Table 4 and FIG. 2) was “clearly improved response”, the Mean proliferation (H460; aprepitant 1 μM) was 91.72 and the Mean proliferation (H460; aprepitant 3 μM) was 100.26. It also gave a Mean proliferation (H460; aprepitant 5 μM) of 67.81, a Mean proliferation (H460; aprepitant 10 μM) of 56.01 and a Mean proliferation (H460; aprepitant 20 μM) of 31.24. The Mean proliferation (H460; aprepitant 30 μM) was 18.27, the Mean proliferation (H460; aprepitant 40 μM) was 14.74 and the Mean proliferation (H460; aprepitant 50 μM) was −0.95. The Mean proliferation (H460; aprepitant 60 μM) was −1.95, the inhibition at 20 µM ([2]; Homo sapiens, concentration of 20 μM (FIG. 5), read-out: growth inhibition) was about 60% and the Mean proliferation ([2]; aprepitant 0.3 μM) was 98.63. For the same molecule, the Mean proliferation ([2]; aprepitant 1 μM) was 97.94, the Mean proliferation ([2]; aprepitant 3 μM) was 98.98 and the Mean proliferation ([2]; aprepitant 10 μM) was 74.02. For the same molecule, the Mean proliferation ([2]; aprepitant 20 μM) was 42.89, the Mean proliferation ([2]; aprepitant 30 μM) was 24.11 and the Mean proliferation ([2]; aprepitant 40 μM) was 7.53. The Mean proliferation ([2]; aprepitant 50 μM) was 1.89, the Mean proliferation ([2]; aprepitant 60 μM) was 6.77 and the “triple negative breast carcinoma proliferation in culture relative to ER+/PR+/HER2+, ER−/PR−/HER2+ and ER+/PR+/HER2−” value ([2]; dose dependent) was “reduces”. It also gave a Mean proliferation ([3]; aprepitant 0.3 μM) of 99.8, a Mean proliferation ([3]; aprepitant 1 μM) of 100.23 and a Mean proliferation ([3]; aprepitant 3 μM) of 95.65. It also gave a Mean proliferation ([3]; aprepitant 10 μM) of 81.8, a Mean proliferation ([3]; aprepitant 20 μM) of 65.97 and a Mean proliferation ([3]; aprepitant 30 μM) of 45.14. The Mean proliferation ([3]; aprepitant 40 μM) was 32.62, the Mean proliferation ([3]; aprepitant 50 μM) was 23.78 and the Mean proliferation ([3]; aprepitant 60 μM) was 12.87.

— US20240082273A1, “NEUROKININ INHIBITORS SUCH AS APREPITANT FOR TREATING NON SMALL CELL LUNG CARCINOMA OR BREAST CANCER WITHOUT MUTATIONS” (priority 2020, published 2024)
